Experimental data taken from paper PMC5896266, “Development of Matrix Metalloproteinase-2 Inhibitors for Cardioprotection” (Frontiers in Pharmacology, 2018).

Target: MMP-9 (Homo sapiens, UniProt P14780)
Experiment: MMP-9 inhibition (inhibitory profile)
Type: biochemical
Details: Table 2
Protocol: The compounds were measured for MMP-1, 2, 9, 13 to determine their inhibitory profile. Efficiency Index amplifies the two major required effects, selectivity against MMP-1 and the inhibitory activity.

Sequence of MMP-9 (P14780 94-707, species assumed): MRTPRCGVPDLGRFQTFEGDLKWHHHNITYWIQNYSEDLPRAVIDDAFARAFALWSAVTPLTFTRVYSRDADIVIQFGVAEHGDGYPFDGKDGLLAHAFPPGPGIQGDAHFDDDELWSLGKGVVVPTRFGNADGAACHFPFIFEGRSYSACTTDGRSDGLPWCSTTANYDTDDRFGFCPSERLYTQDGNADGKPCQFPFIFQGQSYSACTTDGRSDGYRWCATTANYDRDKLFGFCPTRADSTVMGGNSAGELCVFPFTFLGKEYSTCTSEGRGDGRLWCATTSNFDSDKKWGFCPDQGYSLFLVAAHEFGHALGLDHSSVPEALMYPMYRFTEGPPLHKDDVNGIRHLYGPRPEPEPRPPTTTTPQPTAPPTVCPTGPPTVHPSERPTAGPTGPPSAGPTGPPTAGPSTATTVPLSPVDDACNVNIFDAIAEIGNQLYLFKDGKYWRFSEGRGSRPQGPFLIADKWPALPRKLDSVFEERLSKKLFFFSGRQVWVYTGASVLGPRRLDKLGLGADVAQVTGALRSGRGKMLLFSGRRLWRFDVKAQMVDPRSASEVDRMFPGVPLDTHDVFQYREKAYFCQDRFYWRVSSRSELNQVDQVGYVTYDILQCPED

## O=C(O)c1c[nH]c(CN(Cc2ccc(F)cc2)Cc2ccc(OCc3ccccc3)cc2)n1 [MMPI-1154]
  IC50: 13 µM
